{"source": "patent US20060009468A1", "about": "“Method for treatment of cancer” (priority 2004, published 2006)", "origin": "cited, not measured here", "key": {"PANC-1 cells": {"tested_on": "PANC-1 cells", "conditions": "after 72 hrs of exposure"}, "MIA PaCa-2 cells": {"tested_on": "MIA PaCa-2 cells", "conditions": "after 72 hrs of exposure"}}, "data": [{"smiles": "N=C(N)NOCC[C@H](N)C(=O)O", "note": "[L-canavanine, L-Canavanine]", "values": [{"measurement": "increase of the percentage of cells in the radiosensitive G2/M phase of the cell cycle, compared to untreated cells", "setting": "PANC-1 cells", "value": 6, "unit": "fold"}, {"measurement": "increase of the percentage of cells in the radiosensitive G2/M phase of the cell cycle, compared to untreated cells", "setting": "MIA PaCa-2 cells", "value": 4, "unit": "fold"}]}]}
